Assay results taken from patent US10927141B2 (priority 2018, dated 2021).
Read-outs that look alike come from different tables or passages of the source.

Columns and labels:
[1] = Dynamic vapor sorption (DVS), gravimetric moisture sorption; format: physicochemical; conditions: at 80% Relative Humidity, 25° C.
Method: Dynamic Vapor Sorption (DVS) were collected conducted using an SMS DVS Advantage 1 system. For each sample analyzed approximately 10 mg of material was transferred into the DVS instrument and recorded the weight change with respect to the atmospheric humidity at 25° C. using the following parameters: Equilibrium dm/dt: 0.01%/min, (for min: 10 min and max: 180 min); drying setting were 0% RH for 120 min; RH (%) measurement step at 10% and RH (%) measurement step scope of 0-90-0%.

[2] = format: physicochemical; conditions: 1 w
Method: For each salt, approximately 5 mg compound was added into an 8 mL glass vial with a multi-hole aluminum foil cap, and kept at 60° C., 40° C./75% RH for 1 week. […] Appearance by visual observation were recorded followed by purity assessment and XPRD data collection on the residual solids.

[3] = format: physicochemical

COCC1(O)CCC2(C)C(CCC3C2CCC2(C)C(C(=O)Cn4ccnc4)CCC32)C1.O=C(O)c1ccc2ccccc2c1O (stereo not drawn)
gravimetric moisture sorption [1]: about 4.6 % (by weight)

COCC1(O)CCC2(C)C(CCC3C2CCC2(C)C(C(=O)Cn4ccnc4)CCC32)C1.O=C1OC(C(O)CO)C(O)=C1O (stereo not drawn) [Compound 1 Ascorbate (Form A)]
gravimetric moisture sorption [1]: about 5.7 % (by weight)

COC[C@@]1(O)CC[C@@]2(C)[C@@H](CC[C@@H]3[C@@H]2CC[C@]2(C)[C@@H](C(=O)Cn4ccnc4)CC[C@@H]32)C1.O=S(=O)(O)c1ccccc1 [Compound 1 Besylate (Form A)]
gravimetric moisture sorption [1]: about 4.0 % (by weight)

COC[C@@]1(O)CC[C@@]2(C)[C@@H](CC[C@@H]3[C@@H]2CC[C@]2(C)[C@@H](C(=O)Cn4ccnc4)CC[C@@H]32)C1.O=S(=O)(O)NC1CCCCC1 [Compound 1 Cyclamate (Form A)]
gravimetric moisture sorption [1]: about 7.3 % (by weight)

COCC1(O)CCC2(C)C(CCC3C2CCC2(C)C(C(=O)Cn4ccnc4)CCC32)C1.O=CC(O)C(O)C(O)C(O)C(=O)O [Compound 1 D-Glucuronate (Form A)]
gravimetric moisture sorption [1]: about 1.4 % (by weight)

COCC1(O)CCC2(C)C(CCC3C2CCC2(C)C(C(=O)Cn4ccnc4)CCC32)C1.O=C(O)C(Cl)Cl (stereo not drawn) [Compound 1 Dichloroacetate (Form A)]
gravimetric moisture sorption [1]: about 1.8 % (by weight)

CCS(=O)(=O)O.COCC1(O)CCC2(C)C(CCC3C2CCC2(C)C(C(=O)Cn4ccnc4)CCC32)C1 (stereo not drawn) [Compound 1 Ethanesulfonate (Form A)]
gravimetric moisture sorption [1]: about 1.4 % (by weight)

COCC1(O)CCC2(C)C(CCC3C2CCC2(C)C(C(=O)Cn4ccnc4)CCC32)C1.O=C(O)c1cc(O)ccc1O (stereo not drawn) [Compound 1 Gentisate (Form A)]
gravimetric moisture sorption [1]: about 3.1 % (by weight)

COCC1(O)CCC2(C)C(CCC3C2CCC2(C)C(C(=O)Cn4ccnc4)CCC32)C1.Cl (stereo not drawn) [Compound 1 Hydrochloride (Form A)]
gravimetric moisture sorption [1]: about 3.6 % (by weight)

COC(=O)c1ccc2c(c1)NC(=O)/C2=C(\Nc1ccc(N(C)C(=O)CN2CCN(C)CC2)cc1)c1ccccc1.Cl [Compound 1 Hydrochloride (Form B)]
gravimetric moisture sorption [1]: about 2.9 % (by weight)

COC(=O)c1ccc2c(c1)NC(=O)/C2=C(\Nc1ccc(N(C)C(=O)CN2CCN(C)CC2)cc1)c1ccccc1.Cl [Compound 1 Hydrochloride (Form C)]
gravimetric moisture sorption [1]: about 0.7 % (by weight)

COC[C@@]1(O)CC[C@@]2(C)[C@@H](CC[C@@H]3[C@@H]2CC[C@]2(C)[C@@H](C(=O)Cn4ccnc4)CC[C@@H]32)C1.O=S(=O)(O)CCO [Compound 1 Isethionate (Form A)]
gravimetric moisture sorption [1]: about 4.9 % (by weight)

COC[C@@]1(O)CC[C@@]2(C)[C@@H](CC[C@@H]3[C@@H]2CC[C@]2(C)[C@@H](C(=O)Cn4ccnc4)CC[C@@H]32)C1.O=C(O)C(O)C(O)C(=O)O [Compound 1 L(+)-Tartrate (Form A)]
gravimetric moisture sorption [1]: about 1.6 % (by weight)

COCC1(O)CCC2(C)C(CCC3C2CCC2(C)C(C(=O)Cn4ccnc4)CCC32)C1.O=C(O)C(O)C(O)C(=O)O (stereo not drawn) [Compound 1 L(+)-Tartrate (Form B)]
gravimetric moisture sorption [1]: about 1.7 % (by weight)

COCC1(O)CCC2(C)C(CCC3C2CCC2(C)C(C(=O)Cn4ccnc4)CCC32)C1.O=C(O)CC(O)C(=O)O [Compound 1 L-Malate (Form A)]
gravimetric moisture sorption [1]: about 2.0 % (by weight)

COCC1(O)CCC2(C)C(CCC3C2CCC2(C)C(C(=O)Cn4ccnc4)CCC32)C1.O=C(O)CC(O)C(=O)O [Compound 1 L-Malate (Form B)]
gravimetric moisture sorption [1]: about 3.5 % (by weight)

COC(=O)c1ccc2c(c1)NC(=O)/C2=C(\Nc1ccc(N(C)C(=O)CN2CCN(C)CC2)cc1)c1ccccc1.CS(=O)(=O)O [Compound 1 Mesylate (Form A)]
gravimetric moisture sorption [1]: about 3.4 % (by weight)

COC[C@@]1(O)CC[C@@]2(C)[C@@H](CC[C@@H]3[C@@H]2CC[C@]2(C)[C@@H](C(=O)Cn4ccnc4)CC[C@@H]32)C1.O=S(=O)(O)c1ccc2ccccc2c1 [Compound 1 Napsylate (Form A)]
gravimetric moisture sorption [1]: about 3.9 % (by weight)

COCC1(O)CCC2(C)C(CCC3C2CCC2(C)C(C(=O)Cn4ccnc4)CCC32)C1.Nc1ccc(C(=O)O)c(O)c1 (stereo not drawn) [Compound 1 P-Aminosalicylate (Form A)]
gravimetric moisture sorption [1]: about 4.0 % (by weight)

COCC1(O)CCC2(C)C(CCC3C2CCC2(C)C(C(=O)Cn4ccnc4)CCC32)C1.O=P(O)(O)O (stereo not drawn) [Compound 1 Phosphate (Form A)]
gravimetric moisture sorption [1]: about 2.1 % (by weight)

COCC1(O)CCC2(C)C(CCC3C2CCC2(C)C(C(=O)Cn4ccnc4)CCC32)C1.CS(=O)(=O)O (stereo not drawn) [Mesylate (Form A)]
Final purity ([2]; 40° C./75% RH): 99.4 | XRPD patterns ([2]; 40° C./75% RH): Form D | Final purity ([2]; 60° C.): 99.4 | XRPD patterns ([2]; 60° C.): Form A | Final purity ([3]; 1.2 million lux-hrs): 99.3 | XRPD patterns ([3]; 1.2 million lux-hrs): Form A | Final purity ([3]; Dark control): 99.4 | XRPD patterns ([3]; Dark control): Form A

COCC1(O)CCC2(C)C(CCC3C2CCC2(C)C(C(=O)Cn4ccnc4)CCC32)C1.O=S(=O)(O)c1ccc2ccccc2c1 (stereo not drawn) [Napsylate (Form A)]
Final purity ([2]; 40° C./75% RH): 99.1 | XRPD patterns ([2]; 40° C./75% RH): Form A | Final purity ([2]; 60° C.): 99.1 | XRPD patterns ([2]; 60° C.): Form A | Final purity ([3]; 1.2 million lux-hrs): 99.0 | XRPD patterns ([3]; 1.2 million lux-hrs): Form A | Final purity ([3]; Dark control): 99.1 | XRPD patterns ([3]; Dark control): Form A

COC[C@@]1(O)CC[C@@]2(C)[C@@H](CC[C@@H]3[C@@H]2CC[C@]2(C)[C@@H](C(=O)Cn4ccnc4)CC[C@@H]32)C1.O=C(O)C(=O)O [Oxalate (Form A)]
Final purity ([2]; 40° C./75% RH): 98.4 | XRPD patterns ([2]; 40° C./75% RH): Form A | Final purity ([2]; 60° C.): 98.3 | XRPD patterns ([2]; 60° C.): Form A | Final purity ([3]; 1.2 million lux-hrs): 98.2 | XRPD patterns ([3]; 1.2 million lux-hrs): Form A | Final purity ([3]; Dark control): 98.9 | XRPD patterns ([3]; Dark control): Form A

COCC1(O)CCC2(C)C(CCC3C2CCC2(C)C(C(=O)Cn4ccnc4)CCC32)C1.Nc1ccc(C(=O)O)c(O)c1 (stereo not drawn) [P-aminosalicylate (Form A)]
Final purity ([2]; 40° C./75% RH): 97.0 | XRPD patterns ([2]; 40° C./75% RH): Form A | Final purity ([2]; 60° C.): 91.5 | XRPD patterns ([2]; 60° C.): Form A | Final purity ([3]; 1.2 million lux-hrs): 95.7 | XRPD patterns ([3]; 1.2 million lux-hrs): Form A | Final purity ([3]; Dark control): 95.8 | XRPD patterns ([3]; Dark control): Form A

COC[C@@]1(O)CC[C@@]2(C)[C@@H](CC[C@@H]3[C@@H]2CC[C@]2(C)[C@@H](C(=O)Cn4ccnc4)CC[C@@H]32)C1.O=P(O)(O)O [Phosphate (Form A)]
Final purity ([2]; 40° C./75% RH): 99.2 | XRPD patterns ([2]; 40° C./75% RH): Form A | Final purity ([2]; 60° C.): 99.2 | XRPD patterns ([2]; 60° C.): Form A | Final purity ([3]; 1.2 million lux-hrs): 98.9 | XRPD patterns ([3]; 1.2 million lux-hrs): Form A | Final purity ([3]; Dark control): 99.2 | XRPD patterns ([3]; Dark control): Form A

COC[C@@]1(O)CC[C@@]2(C)[C@@H](CC[C@@H]3[C@@H]2CC[C@]2(C)[C@@H](C(=O)Cn4ccnc4)CC[C@@H]32)C1.O=S(=O)(O)O [Sulfate (Form A)]
Final purity ([2]; 40° C./75% RH): 97.5 | XRPD patterns ([2]; 40° C./75% RH): Form A | Final purity ([2]; 60° C.): 96.2 | XRPD patterns ([2]; 60° C.): Form A | Final purity ([3]; 1.2 million lux-hrs): 97.1 | XRPD patterns ([3]; 1.2 million lux-hrs): Form A | Final purity ([3]; Dark control): 97.6 | XRPD patterns ([3]; Dark control): Form A

COCC1(O)CCC2(C)C(CCC3C2CCC2(C)C(C(=O)Cn4ccnc4)CCC32)C1.Cc1ccc(S(=O)(=O)O)cc1 (stereo not drawn) [Tosylate (Form A)]
Final purity ([2]; 40° C./75% RH): 99.5 | Final purity ([2]; 60° C.): 99.5 | XRPD patterns ([2]; 60° C.): Form A | Final purity ([3]; 1.2 million lux-hrs): 99.0 | XRPD patterns ([3]; 1.2 million lux-hrs): Form A | Final purity ([3]; Dark control): 99.5 | XRPD patterns ([3]; Dark control): Form A
